Reference: publication PMC11845477, “Exploring the principles behind antibiotics with limited resistance” (Nature Communications, 2025)
Where a SMILES comes first, the peptide text is derived from it. Bridges are numbered along the chain shown (N, C = ends). [ ]: non-standard residue; d: D form. The star is where a group is joined. X2 = CC[C@H](C)CCCCC(=O)*; Dab = NCC[C@H](N)C(=O)O

Assays:
[1] = system: K. pneumoniae ATCC 10031 (SEN) and K. pneumoniae ATCC 700603 (MDR); experiment: Adaptive laboratory evolution (ALE), relative MIC of evolved lines; assay type: cell-based, Klebsiella pneumoniae
Procedure, shortened: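 Ten parallel populations per antibiotic–ancestor pair were evolved in MHB at 37 °C, starting near 50% growth-inhibiting drug. Every 72 h they were passaged into 0.5–2.5× increasing concentrations, keeping the highest-drug well with OD600 > 0.2.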

[2] = system: E. coli BW25113-ΔacrB; experiment: AcrAB-TolC efflux deficiency screen, relative MIC; assay type: cell-based, Escherichia coli; settings: ΔacrB vs wild-type
Procedure, shortened: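 Broth microdilution in MHB (supplemented MS for SCH79797), ten-step antibiotic dilutions, 5 × 10^5 cells/mL, 18 h at 37 °C with shaking; MIC is lowest concentration giving background-corrected OD600 < 0.05. Relative MIC as log2 ratio: ΔacrB vs wild-type; pUCacrAB vs empty pUC118 (plasmid strains under 100 µg/mL ampicillin). Mean of 3 biological replicates.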

[3] = KP-SEN (Klebsiella pneumoniae ATCC 10031), evolved line 1
[4] = KP-SEN (Klebsiella pneumoniae ATCC 10031), evolved line 2
[5] = KP-SEN (Klebsiella pneumoniae ATCC 10031), evolved line 3
[6] = KP-SEN (Klebsiella pneumoniae ATCC 10031), evolved line 4
[7] = KP-SEN (Klebsiella pneumoniae ATCC 10031), evolved line 6
[8] = KP-SEN (Klebsiella pneumoniae ATCC 10031), evolved line 8
[9] = KP-SEN (Klebsiella pneumoniae ATCC 10031), evolved line 9
[10] = KP-SEN (Klebsiella pneumoniae ATCC 10031), evolved line 10
[11] = KP-SEN, Klebsiella pneumoniae ATCC 10031, evolved line 5
[12] = KP-SEN, Klebsiella pneumoniae ATCC 10031, evolved line 7

CN(C)c1cc(CNCC(C)(C)C)c(O)c2c1C[C@H]1C[C@H]3[C@H](N(C)C)C(O)=C(C(N)=O)C(=O)[C@@]3(O)C(O)=C1C2=O [Omadacycline]
Relative MIC [1, 3]: 128 | Relative MIC (log10) ([1]; KP-SEN (Klebsiella pneumoniae ATCC 10031), evolved line 1 adapted to the named antibiotic): 2.107 | Relative MIC [1, 4]: 128 | Relative MIC (log10) ([1]; KP-SEN (Klebsiella pneumoniae ATCC 10031), evolved line 2 adapted to the named antibiotic): 2.107 | Relative MIC [1, 5]: 64 | Relative MIC [1, 6]: 64 | Relative MIC (log10) ([1]; KP-SEN (Klebsiella pneumoniae ATCC 10031), evolved line 5 adapted to the named antibiotic): 2.107 | Relative MIC [1, 7]: 128 | Relative MIC (log10) ([1]; KP-SEN (Klebsiella pneumoniae ATCC 10031), evolved line 6 adapted to the named antibiotic): 2.107 | Relative MIC [1, 8]: 64 | Relative MIC [1, 9]: 128 | Relative MIC (log10) ([1]; KP-SEN (Klebsiella pneumoniae ATCC 10031), evolved line 9 adapted to the named antibiotic): 2.107 | Relative MIC [1, 10]: 128 | Relative MIC ([1]; KP-SEN ATCC 10031, evolved line 1, evolved line vs ancestor): 128 | Relative MIC ([1]; KP-SEN ATCC 10031, evolved line 2, evolved line vs ancestor): 128 | Relative MIC ([1]; KP-SEN ATCC 10031, evolved line 3, evolved line vs ancestor): 64 | Relative MIC ([1]; KP-SEN ATCC 10031, evolved line 4, evolved line vs ancestor): 64 | Relative MIC ([1]; KP-SEN ATCC 10031, evolved line 5, evolved line vs ancestor): 128 | Relative MIC ([1]; KP-SEN ATCC 10031, evolved line 6, evolved line vs ancestor): 128 | Relative MIC ([1]; KP-SEN ATCC 10031, evolved line 7, evolved line vs ancestor): 32 | Relative MIC ([1]; KP-SEN ATCC 10031, evolved line 8, evolved line vs ancestor): 64 | Relative MIC ([1]; KP-SEN ATCC 10031, evolved line 9, evolved line vs ancestor): 128 | Relative MIC ([1]; KP-SEN ATCC 10031, evolved line 10, evolved line vs ancestor): 128 | Relative MIC [1, 11]: 128 | Relative MIC [1, 12]: 32 | Relative MIC (log2) ([2]; replicate 1): -2.34 | Relative MIC (log2) ([2]; replicate 2): -2.34 | Relative MIC (log2) ([2]; replicate 3): -2.34

CC[C@H](C)CCCCC(=O)N[C@@H](CCN)C(=O)N[C@H](C(=O)N[C@@H](CCN)C(=O)N[C@H]1CCNC(=O)[C@H]([C@@H](C)O)NC(=O)[C@H](CCN)NC(=O)[C@H](CCN)NC(=O)[C@H](CC(C)C)NC(=O)[C@@H](Cc2ccccc2)NC(=O)[C@H](CCN)NC1=O)[C@@H](C)O [Polymyxin B] (X2-[Dab]T[Dab][Dab][Dab][dF]L[Dab][Dab]T; lactam 4-C (inferred); N-terminus assumed)
Relative MIC (log10) ([1]; KP-MDR (Klebsiella pneumoniae ATCC 700603), evolved line 3): 2.408 log10 | Relative MIC (log10) ([1]; KP-MDR (Klebsiella pneumoniae ATCC 700603), evolved line 5): 2.408 log10 | Relative MIC (log10) ([1]; KP-MDR (Klebsiella pneumoniae ATCC 700603), evolved line 6): 2.408 log10 | Relative MIC (log10) ([1]; KP-MDR (Klebsiella pneumoniae ATCC 700603), evolved line 9): 2.408 log10 | Relative MIC (log10) ([1]; KP-MDR (Klebsiella pneumoniae ATCC 700603), evolved line 10): 2.408 log10 | Relative MIC (log10) [1, 3]: 2.408 log10 | Relative MIC (log10) [1, 4]: 2.709 log10 | Relative MIC (log10) [1, 5]: 2.709 log10 | Relative MIC (log10) [1, 9]: 2.709 log10 | Relative MIC (log10) [1, 11]: 2.709 log10 | Relative MIC (log2) ([2]; replicate 1): 0 | Relative MIC (log2) ([2]; replicate 2): 0 | Relative MIC (log2) ([2]; replicate 3): 0

CC(C)c1ccc(Cn2ccc3c4c(N)nc(NC5CC5)nc4ccc32)cc1 [SCH79797]
Relative MIC ([1]; ALE, Klebsiella pneumoniae ATCC 10031 (KP-SEN), evolved line 1): 16 | Relative MIC ([1]; ALE, Klebsiella pneumoniae ATCC 10031 (KP-SEN), evolved line 2): 4 | Relative MIC ([1]; ALE, Klebsiella pneumoniae ATCC 10031 (KP-SEN), evolved line 3): 2 | Relative MIC ([1]; ALE, Klebsiella pneumoniae ATCC 10031 (KP-SEN), evolved line 4): 16 | Relative MIC ([1]; ALE, Klebsiella pneumoniae ATCC 10031 (KP-SEN), evolved line 5): 32 | Relative MIC ([1]; ALE, Klebsiella pneumoniae ATCC 10031 (KP-SEN), evolved line 6): 2 | Relative MIC ([1]; ALE, Klebsiella pneumoniae ATCC 10031 (KP-SEN), evolved line 7): 4 | Relative MIC ([1]; ALE, Klebsiella pneumoniae ATCC 10031 (KP-SEN), evolved line 8): 8 | Relative MIC ([1]; ALE, Klebsiella pneumoniae ATCC 10031 (KP-SEN), evolved line 9): 8 | Relative MIC ([1]; ALE, Klebsiella pneumoniae ATCC 10031 (KP-SEN), evolved line 10): 2 | MIC of evolved line ([1]; KP-SEN (K. pneumoniae ATCC 10031), evolved line 1 of the given antibiotic): 64 µg/mL | Relative MIC ([1]; KP-SEN (K. pneumoniae ATCC 10031), evolved line 1 vs ancestor): 16 | MIC of evolved line ([1]; KP-SEN (K. pneumoniae ATCC 10031), evolved line 2 of the given antibiotic): 16 µg/mL | Relative MIC ([1]; KP-SEN (K. pneumoniae ATCC 10031), evolved line 2 vs ancestor): 4 | MIC of evolved line ([1]; KP-SEN (K. pneumoniae ATCC 10031), evolved line 3 of the given antibiotic): 8 µg/mL | Relative MIC ([1]; KP-SEN (K. pneumoniae ATCC 10031), evolved line 3 vs ancestor): 2 | MIC of evolved line ([1]; KP-SEN (K. pneumoniae ATCC 10031), evolved line 4 of the given antibiotic): 64 µg/mL | Relative MIC ([1]; KP-SEN (K. pneumoniae ATCC 10031), evolved line 4 vs ancestor): 16 | MIC of evolved line ([1]; KP-SEN (K. pneumoniae ATCC 10031), evolved line 5 of the given antibiotic): 128 µg/mL | Relative MIC ([1]; KP-SEN (K. pneumoniae ATCC 10031), evolved line 5 vs ancestor): 32 | MIC of evolved line ([1]; KP-SEN (K. pneumoniae ATCC 10031), evolved line 6 of the given antibiotic): 8 µg/mL | Relative MIC ([1]; KP-SEN (K. pneumoniae ATCC 10031), evolved line 6 vs ancestor): 2 | MIC of evolved line ([1]; KP-SEN (K. pneumoniae ATCC 10031), evolved line 7 of the given antibiotic): 16 µg/mL | Relative MIC ([1]; KP-SEN (K. pneumoniae ATCC 10031), evolved line 7 vs ancestor): 4 | MIC of evolved line ([1]; KP-SEN (K. pneumoniae ATCC 10031), evolved line 8 of the given antibiotic): 32 µg/mL | Relative MIC ([1]; KP-SEN (K. pneumoniae ATCC 10031), evolved line 8 vs ancestor): 8 | MIC of evolved line ([1]; KP-SEN (K. pneumoniae ATCC 10031), evolved line 9 of the given antibiotic): 32 µg/mL | Relative MIC ([1]; KP-SEN (K. pneumoniae ATCC 10031), evolved line 9 vs ancestor): 8 | MIC of evolved line ([1]; KP-SEN (K. pneumoniae ATCC 10031), evolved line 10 of the given antibiotic): 8 µg/mL | Relative MIC ([1]; KP-SEN (K. pneumoniae ATCC 10031), evolved line 10 vs ancestor): 2 | Relative MIC [1, 3]: 16 | Relative MIC (log10) [1, 3]: 1.204 log10 | Relative MIC [1, 4]: 4 | Relative MIC [1, 5]: 2 | Relative MIC [1, 6]: 16 | Relative MIC (log10) [1, 6]: 1.204 log10 | Relative MIC [1, 7]: 2 | Relative MIC [1, 8]: 8 | Relative MIC (log10) [1, 8]: 0.9031 log10 | Relative MIC [1, 9]: 8 | Relative MIC (log10) [1, 9]: 0.9031 log10 | Relative MIC [1, 10]: 2 | Relative MIC [1, 11]: 32 | Relative MIC (log10) [1, 11]: 1.505 log10 | Relative MIC [1, 12]: 4 | Relative MIC ([1]; Klebsiella pneumoniae ATCC 10031 (KP-SEN), evolved line 1): 16 | Relative MIC ([1]; Klebsiella pneumoniae ATCC 10031 (KP-SEN), evolved line 2): 4 | Relative MIC ([1]; Klebsiella pneumoniae ATCC 10031 (KP-SEN), evolved line 3): 2 | Relative MIC ([1]; Klebsiella pneumoniae ATCC 10031 (KP-SEN), evolved line 4): 16 | Relative MIC ([1]; Klebsiella pneumoniae ATCC 10031 (KP-SEN), evolved line 5): 32 | Relative MIC ([1]; Klebsiella pneumoniae ATCC 10031 (KP-SEN), evolved line 6): 2 | Relative MIC ([1]; Klebsiella pneumoniae ATCC 10031 (KP-SEN), evolved line 7): 4 | Relative MIC ([1]; Klebsiella pneumoniae ATCC 10031 (KP-SEN), evolved line 8): 8 | Relative MIC ([1]; Klebsiella pneumoniae ATCC 10031 (KP-SEN), evolved line 9): 8 | Relative MIC ([1]; Klebsiella pneumoniae ATCC 10031 (KP-SEN), evolved line 10): 2 | Relative MIC (log2) ([2]; replicate 1): -1 | Relative MIC (log2) ([2]; replicate 2): -1 | Relative MIC (log2) ([2]; replicate 3): -1
